Assay results as given in patent publication US20070048356A1, “Antimicrobial treatment of nonwoven materials for infection control” (priority 2005, published 2007).

Assays:
Assay type in all cases: cell-based
S. aureus (ATCC 6538) = experiment: Dynamic Shake Flask (based on ASTM E 2149-01) on treated nonwoven
A. Niger (ATCC 16404) = experiment: as above; conditions: Table 14, Spunbond
Protocol: The test organisms are grown in 25 mL appropriate broth medium for about 24±2 hours at 37±2° C. in a wrist action shaker. The bacterial culture is then transferred by placing about 100 μL aliquot in 25 mL of broth and grown again for about 24±2 hours at 37±2° C. The organisms are then centrifuged and washed three times with phosphate buffered saline (PBS). The organisms are then suspended in PBS to obtain an inoculum of approximately 1×10^8 CFU/mL.
The test articles and control swatches are exposed to an ultraviolet light source for about 5-10 minutes per side before testing to assure that the swatches are sanitized prior to inoculation with the bacteria. The test materials are brought into contact with a known population of test bacteria from the inoculum for a specified period of time. A sample is then plated at the end of the exposure time to enumerate the surviving bacteria. The log10 reduction form the control material and the original population is calculated using the following formula: Log10 Control*−Log10 CFU/swatch Test Article=Log10 Reduction
[…] This buffer solution contains a chemical to de-activate or “neutralize” the antimicrobial agent to (a) stop the active agent from killing the organisms after the designated time period and (b) to prevent artifacts that may arise from exposing the microorganisms to the antimicrobial in solution rather than solely on the substrate. Because each chemical used as an antimicrobial agent is a little different (ie: cationic, nonionic, metal, etc), a different neutralizer was likely added in each case to shut off the antimicrobial at the desired end point of the experiment. […] The neutralizer employed may be selected from a list that is commonly used in the field. These include, non-ionic degtergents, Bisulphate, lecithin, leethen broth, thiosulfate, thioglycolate, and pH buffers, Method similar to those described in American Society for Testing and Materials, Standard Practices for Evaluating Inactivators of Antimicrobial Agents Used in Disinfectant, Sanitizer, Antiseptic, or Preserved Products, Amer. Soc. Testing Mat. E 1054-91 (1991) can be used.

[1] = test system: Staphylococcus aureus (ATCC #27660); experiment: Rapid Germicidal Time Kill on treated gloves; conditions: for log reduction of organisms: nitrile gloves, versus applied organisms estimated from latex control
From the text: In another aspect, to assess the efficacy of how rapidly the applied antimicrobial agents kill, we employed a direct contact, rapid germicidal test, developed by Kimberly-Clark Corporation. This test better simulates real world working situations in which microbes are transferred from a substrate to glove through direct contacts of short duration. Also this test permits us to assess whether contact with the surface of the glove at one position will quickly kill microbes, whereas the solution-based testing of the ASTM E 2149-01 protocol tends to provide multiple opportunities to contact and kill the microbes, which less realistic in practice.
We applied an inoculum of a known amount of microbes to the antimicrobial-treated surface of a glove. After about 3-6 minutes, we assessed the number of microbes that remained on the surface of the treated glove. […] The concentration of organisms on the surface is given at an initial Zero Time point and at 3, 5, and 30 minute points.
To test the antimicrobial efficacy of a polyhexamethylene biguanide, we treated nitrile examination gloves according to ASTM protocol 04-123409-106 “Rapid Germicidal Time Kill.” In brief, about 50 μL of an overnight culture of Staphylococcus aureus (ATCC #27660, 5×10^8CFU/mL) was applied to the glove material. After a total contact time of about 6 minutes the glove fabric was placed into a neutralizing buffer. Surviving organisms were extracted and diluted in Letheen broth. Aliquots were spread plated on Tryptic Soy Agar plates. Plates were incubated for 48 hours at 35° C. Following incubation the surviving organisms were counted and the colony forming units (CFU) were recorded. The reduction (log10) in surviving organisms from test material versus control fabric was calculated: Log10 CFU/swatch Control−Log10 CFU/swatch Test Article=Log10 Reduction.

S. aureus = experiment: Zone of inhibition test to measure leaching; conditions: AATCC 147 and ASTM E 2149-01 protocols
Protocol: First, according to the American Association of Textile Chemists and Colorists (AATCC)-147 test protocol, in a dry-leaching test, the antimicrobial treated material is placed in an agar plate seeded with a known amount of organism population on the plate surface. The plate is then incubated for about 18-24 hours at about 35° C. or 37° C.±2° C. Afterwards, the agar plate is assessed. Any leaching of the antimicrobial from the treated material would result in a zone of inhibited microbial growth. […] The piece of material was allowed to sit for 24 hours in solution and then the supernatant of the solution was extracted. […] About 100 micro liters (μL) of supernatant is added to a 8 mm well cut into a seeded agar plate and allow to dry. […] In summary, these protocols are performed by incubating an inoculated plate containing either the actual treated material or a solution that has been exposed to the treated material. This plate is then analyzed for zones of inhibition of organism growth to detect if the antimicrobial has leached off of the material or into the solution.

C. Albicans (ATCC 10231) = experiment: Dynamic Shake Flask (based on ASTM E 2149-01) on treated nonwoven; conditions: Table 15, SMS
[2] = Table 25, nitrile glove samples, Inoculum: 8.08

Substance: Polyhexamethylene biguanide [PHMB]
- Dynamic Shake Flask Log10 Reduction (S. aureus (ATCC 6538); Table 12, Meltblown, contact time 1 min): 4 Log10
- Dynamic Shake Flask Log10 Reduction (S. aureus (ATCC 6538); Table 12, Meltblown, contact time 5 min): 4 Log10
- Dynamic Shake Flask Log10 Reduction (S. aureus (ATCC 6538); Table 12, Meltblown, contact time 15 min): 4 Log10
- Dynamic Shake Flask Log10 Reduction (S. aureus (ATCC 6538); Table 12, SMS, contact time 1 min): 4 Log10
- Dynamic Shake Flask Log10 Reduction (S. aureus (ATCC 6538); Table 12, SMS, contact time 5 min): 4 Log10
- Dynamic Shake Flask Log10 Reduction (S. aureus (ATCC 6538); Table 12, SMS, contact time 15 min): 4 Log10
- Dynamic Shake Flask Log10 Reduction (S. aureus (ATCC 6538); Table 12, Spunbond, contact time 1 min): 4 Log10
- Dynamic Shake Flask Log10 Reduction (S. aureus (ATCC 6538); Table 12, Spunbond, contact time 5 min): 4 Log10
- Dynamic Shake Flask Log10 Reduction (S. aureus (ATCC 6538); Table 12, Spunbond, contact time 15 min): 4 Log10
- Dynamic Shake Flask Log10 Reduction (S. aureus (ATCC 6538); Table 16, Spunbond substrate, contact time 1 min, listed as 0.5% PHMB): 2.31 Log10
- Dynamic Shake Flask Log10 Reduction (S. aureus (ATCC 6538); Table 16, Spunbond substrate, contact time 1 min, listed as 1.0% PHMB): 4.00 Log10
- Dynamic Shake Flask Log10 Reduction (S. aureus (ATCC 6538); Table 16, Spunbond substrate, contact time 5 min): 4.00 Log10
- Dynamic Shake Flask Log10 Reduction (S. aureus (ATCC 6538); Table 16, Spunbond substrate, contact time 15 min): 4.00 Log10
- Dynamic Shake Flask Log10 Reduction (S. aureus (ATCC 6538); Table 17, Spunbond substrate, contact time 1 min): 0.18 Log10
- Dynamic Shake Flask Log10 Reduction (S. aureus (ATCC 6538); Table 17, Spunbond substrate, contact time 5 min): 0.33 Log10
- Dynamic Shake Flask Log10 Reduction (S. aureus (ATCC 6538); Table 17, Spunbond substrate, contact time 15 min): 0.58 Log10
- Dynamic Shake Flask Log10 Reduction (S. aureus (ATCC 6538); Table 19, SMS substrate, contact time 1 min): 0.18 Log10
- Dynamic Shake Flask Log10 Reduction (S. aureus (ATCC 6538); Table 19, SMS substrate, contact time 5 min): 0.33 Log10
- Dynamic Shake Flask Log10 Reduction (S. aureus (ATCC 6538); Table 19, SMS substrate, contact time 15 min): 0.58 Log10
- Dynamic Shake Flask Log10 Reduction (A. Niger (ATCC 16404); contact time 1 min): 4.00 Log10
- Dynamic Shake Flask Log10 Reduction (A. Niger (ATCC 16404); contact time 5 min): 4.00 Log10
- Dynamic Shake Flask Log10 Reduction (A. Niger (ATCC 16404); contact time 15 min): 4.00 Log10
- Result (Log10 Reduction, test material versus control) ([1]; Table 23, microtextured nitrile glove, total contact time about 6 minutes): >4.7 log10
- Result (Log10 Reduction versus PFE control) ([1]; Table 24, latex glove samples, total contact time about 6 minutes): >5.83 log10
- Result (log reduction of test glove compared to control glove) [1, 2]: >1.85 log
- Result (log reduction of test glove compared to control glove), class [1, 2]: NR (No Reduction = less than 0.5 log reduction of test glove compared to control glove.)
- log reduction of Staphylococcus aureus ATCC 27660 ([1]; microtextured nitrile glove, machine applied at 0.03 g/glove): greater than four
- log reduction of organisms ([1]; hand sprayed with no heat): greater than one
- log reduction of organisms ([1]; machine sprayed under heated conditions): greater than 5 log
- zones of inhibition / leaching from the treated substrate (S. aureus): does not leach
- Dynamic Shake Flask Log10 Reduction (C. Albicans (ATCC 10231); contact time 1 min): 1.28 Log10
- Dynamic Shake Flask Log10 Reduction (C. Albicans (ATCC 10231); contact time 5 min): 2.38 Log10
- Dynamic Shake Flask Log10 Reduction (C. Albicans (ATCC 10231); contact time 15 min): 3.48 Log10
